Source: patent publication US7683061B2, “Triazine dimers for the treatment of autoimmune diseases” (ProMetic BioSciences Inc., priority 2003, dated 2010)
Read-outs that look alike come from different tables or passages of the source.

How the values were obtained:
[1] = molecular target: T1, TNFα / p55 TNFα receptor (CD120a) (Homo sapiens, UniProt P01375); experiment: Binding ELISA: sTNF-R1 binding to plastic coated TNF-α; details: for inhibition at 100 µM: 10^−4 M; for inhibition at 10 µM: 10^−5 M
T1 sequence (P01375 77-233 limits assumed): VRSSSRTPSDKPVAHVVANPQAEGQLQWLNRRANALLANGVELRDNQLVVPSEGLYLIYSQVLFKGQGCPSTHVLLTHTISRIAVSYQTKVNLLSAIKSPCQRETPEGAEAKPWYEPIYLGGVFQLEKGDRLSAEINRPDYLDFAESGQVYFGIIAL
Protocol: (§1) Compounds were tested for their ability to bind to TNFα or inhibit the interaction of TNFα with its respective receptors; p55 and p75 TNFα receptor. Three binding ELISA assays were undertaken as described by Mancini et al. Biochemical Pharmacology 58, 851-859 (1999). TNFα or receptor (1 μg/mL) was coated on a 96-well plate Maxisorp, overnight at 4° C. After incubation, unbound TNFα or p55 TNFα receptor or p75 TNFα receptor was removed and the plate washed three times with PBS. The plate was then incubated with 100 μL/well of a 2% BSA solution for 1 h at 37° C. to block non specific protein binding. After incubation, the plate was washed three times with PBS. Biotinylated recombinant human TNFα p55 or p75 receptor or biotinylated recombinant human TNFα was added to the wells in the presence or absence of compounds. The plate was incubated for 1 h at 37° C. After incubation, the plate was washed three times with PBS to remove unbound labeled p55 or p75 receptor or recombinant human TNFα. 100 μL of avidin-HRP (diluted 1/2000 in PBS-0.1% BSA) was added to each well and incubated 1 h at 37° C. Bound p55 or p75 receptor or recombinant human TNFα was detected by the addition of 200 μL of 3,3′,5,5′-tetramethylbenzidine (TMB) per well for 15 min. The plate was then read at 655 nm on a EL 800 universal Microplate reader (Bio-Tek, Mississauga, Canada). Data was analyzed in Microsoft Excel and recorded as the percentage of inhibition of p55 or p75 binding to TNFα or TNFα binding to RI (p55) or RII (p75).

[2] = molecular target: T2, TNFα / p75 TNFα receptor (CD120b) (Homo sapiens, UniProt P01375); experiment: Binding ELISA: sTNF-R2 binding to plastic coated TNF-α; details: for inhibition at 100 µM: 10^−4 M; for inhibition at 10 µM: 10^−5 M
T2 sequence (P01375 77-233 limits assumed): as above
Protocol: as §1

[3] = molecular target: T1, TNFα / p55 TNFα receptor (CD120a); experiment: Binding ELISA: TNF-α binding to plastic coated TNF-R1; details: for inhibition at 100 µM: 10^−4 M; for inhibition at 10 µM: 10^−5 M
Protocol: as §1

[4] = tested on: TNFα-induced apoptosis, WEHI-13VAR cells; experiment: TNFα induced apoptosis in WEHI-13VAR cells (MTT); assay type: cell-based, murine; details: Mus musculus; for inhibition at 10 µM: 1 × 10^−5M; for inhibition at 20 µM: 2 × 10^−5M; for inhibition at 40 µM: 4 × 10^−5M; for inhibition at 5 µM: 5 × 10^−6M
Protocol: Effect of compounds on TNFα-induced apoptosis was measured by a standard biological assay using WEHI-13VAR cells. These cells undergo apoptosis when they are incubated in the presence of TNFα and actinomycin D. 2×10^4 WEHI-13VAR cells were incubated in RPMI supplemented with 1% sodium pyruvate and 10% FBS, overnight at 37° C. for cell adherence. The cells were then cultured in the presence of 1 μg/mL of actinomycin D (to inhibit protein synthesis) and 0.04 nM TNFα with or without compounds at 37° C. After 16-24 h, 50 μL of a solution of 2 mg/mL of MTT was added to each well and the plate was then incubated for 4 h at 37° C. Only viable cells metabolize MTT to form formazan salt, which is detectable by the measurement of absorbance at 570 nm. After the incubation, the plate was inverted to remove medium and dead cells. 150 μL DMSO was added to each well to stop the reaction and solubilize the formazan salt. Optical density was read on a EL 800, universal Microplate reader (Bio-Tek). A decrease in the optical density is direct evidence of cell apoptosis induced by TNFα. Compounds were also compared to the activity of an anti-TNFα neutralizing antibody.

[5] = molecular target: T2, TNFα / p75 TNFα receptor (CD120b); experiment: Binding ELISA: TNF-α binding to plastic coated TNF-R2; details: for inhibition at 100 µM: 10^−4 M; for inhibition at 10 µM: 10^−5 M
Protocol: as §1

[6] = tested on: TNFα production, J774A-1 cells; experiment: LPS-induced TNFα production in J774A-1 cells (ELISA); assay type: cell-based; details: Mus musculus, J774.A1, 24 h, read-out: IC50 (μM), inhibition of TNFα released by LPS induction
Protocol: Effect of compounds on TNFα production was measured by ELISA using J774-1 cells stimulated by LPS. J774-1 cells were cultured in the presence or absence of LPS and compound. Cells were cultured at 37° C. for 24 h and thereafter the supernatants were collected for the determination of the concentration of TNFα by ELISA as recommended by the manufacturer (BD Biosciences). Data was analyzed in Microsoft Excel and the concentration of compound which inhibits 50% of TNFα production (IC50) was calculated using Prism software.

[7] = tested on: peripheral blood mononuclear leukocytes (PBML); experiment: PBML DNA synthesis (thymidine); assay type: cell-based, human; details: for IC50: Homo sapiens, Leukocyte
Source text: (§2) PBML were obtained from the peripheral blood of healthy volunteers. Blood was submitted to gradient centrifugation with Lympholyte-poly (Cedarlane, Hornby, Canada). The layer, which contains the mononuclear leukocytes, was collected and the cells washed three times in PBS. Cells were then suspended in RPMI (Gibco, Burlington, Canada) supplemented with […] (cyclone, Logan USA). Viability was greater than 99% as determined by trypan blue exclusion.
(§3) PBML were resuspended at 2×10^6 cells mL. 100 μL of PBML (2×10^5 cells) were incubated in a 96-well microtiter plate for 48 h in the presence or absence of compound or protein A. Cells were quiescent or stimulated with concanavalin A (ConA; T-cells) or pokeweed mitogen (PWM; B-cells). After incubation, cells were treated with MTT (cytotoxicity) or pulsed with 1 μCi of [^3]-thymidine (DNA synthesis), [^3H]-uridine (RNA synthesis) or [^3]-leucine (protein synthesis) for 6 h. Plates were harvested on a Tomteck and counted on a Microbeta β-counter.

[8] = tested on: peripheral blood mononuclear leukocytes (PBML); experiment: PBML protein synthesis (leucine); assay type: cell-based, human; details: Homo sapiens, Leukocyte
Source text: as §2, §3

PBML cytotoxicity (MTT) = assay type: cell-based; details: human
Source text: as §2, §3

[9] = tested on: peripheral blood mononuclear leukocytes (PBML); experiment: PBML RNA synthesis (uridine); assay type: cell-based, human; details: for IC50: Homo sapiens, Leukocyte
Source text: as §2, §3

[10] = molecular target: T3, Fc portion of human IgG (binding of protein A to human IgG); experiment: Competitive protein A binding ELISA
T3 construct: fused on or other part: Horseradish peroxidase chemically conjugated to the IgG (HRP-IgG)
Protocol: As described above, this assay evaluates the ability of the exemplified compounds to mimic protein A. Such compounds can bind to the Fc portion of human IgG as ascertained by the inhibition of binding of protein A to human IgG. The competitive protein A binding ELISA assay was performed on a 96-well plate Maxisorp surface to enhance the binding of protein A to the bottom of the plate. The wells were coated with 100 μL of protein A (0.8 μg) and incubated overnight at 4° C. After incubation, unbound protein A was removed by three washes with phosphate buffer saline (PBS). The plate was then incubated with 100 μL/well of a 2% solution of bovine serum albumin (BSA) for 1 h at 37° C. to block non specific protein binding. After incubation, the plate was washed to times with PBS. 50 μL of compound or protein A, diluted in PBS or PBS-20% DMSO at appropriate concentration, were added to the wells followed by addition of 50 μL of peroxidase-conjugated human IgG (HRP-IgG). After 1 h incubation at 37° C., the plate was washed free times with PBS to remove unbound HRP-IgG. Bound HRP-IgG was detected by incubation with 100 μL of 2,2′-Azino-di[3-ethylbenzothiazoline sulfonate]diammonium salt crystals (ABTS) solution for 20 min in the dark at room temperature. The plate was then read at 405 nm on a EL 800, universal Microplate reader (Bio-Tek). Data was analyzed in Microsoft Excel and the concentration of compound which inhibits 50% binding of protein A (IC50) was calculated using Prism software.
Table 1 represents the IC50 of compounds tested in the competitive protein A binding ELISA assay, which consists of a side-by-side analysis in PBS and PBS-20% DMSO. DMSO was used to increase the solubility of some of the compounds.

[11] = resting and stimulated (ConA and PWM) PBML
[12] = Table 1, PBS-20% DMSO, read-out: IC50 (μM): Assay in PBS-20% DMSO
[13] = Table 1, PBS, read-out: IC50 (μM): Assay in PBS

Oc1ccc(CCNc2nc(NCCCNc3nc(NCCc4ccc(O)cc4)nc(Nc4ccccc4)n3)nc(Nc3ccccc3)n2)cc1 [Compound 25]
inhibition at 100 µM [1]: 5.65%
inhibition at 10 µM [1]: 6.74%
inhibition at 100 µM [2]: 4.22%
inhibition at 10 µM [2]: 6.76%
inhibition at 100 µM [3]: 22.9%
inhibition at 10 µM [3]: 3.95%
inhibition at 10 µM [4]: 22.8%
inhibition at 20 µM [4]: -0.7%
inhibition at 40 µM [4]: -17.8%
inhibition at 5 µM [4]: 27.5%
inhibition at 100 µM [5]: 49.2%
inhibition at 10 µM [5]: 4.8%
IC50 [6]: 15.9 µM

Nc1ccc(CCNc2nc(NCCNc3nc(NCCc4ccc(N)cc4)nc(Nc4cccc(N)c4)n3)nc(Nc3cccc(N)c3)n2)cc1 [Compound 7]
IC50 ([7]; ConA stimulated PBML): 3.52 µM
IC50 ([7]; PWM stimulated PBML): 1.28 µM
IC50 ([7]; Resting PBML): 3.6 µM
effect on DNA synthesis (in words) [7, 11]: suppress
inhibition at 100 µM [3]: 32.6%
inhibition at 10 µM [3]: 10.4%
IC50 ([8]; ConA stimulated PBML): > 10 µM
IC50 ([8]; PWM stimulated PBML): > 10 µM
IC50 ([8]; Resting PBML): > 10 µM
IC50 at 48 h (PBML cytotoxicity (MTT); ConA stimulated PBML): > 10 µM
IC50 at 48 h (PBML cytotoxicity (MTT); PWM stimulated PBML): > 10 µM
IC50 at 48 h (PBML cytotoxicity (MTT); Resting PBML): > 10 µM
IC50 ([9]; ConA stimulated PBML): 1.5 µM
IC50 ([9]; PWM stimulated PBML): 1.78 µM
IC50 ([9]; Resting PBML): 1.12 µM
effect on RNA synthesis (in words) [9, 11]: suppress
inhibition at 100 µM [5]: 36.9%
inhibition at 10 µM [5]: 43.3%
IC50 [10, 12]: 0.02 µM
IC50 [10, 13]: 0.2 µM
IC50 ([10]; Table 2, PBS-20% DMSO, n = 5 or 6, read-out: IC50 (n = 5 or 6) PBS-20% DMSO): 0.0217 µM
IC50 ([10]; Table 2, PBS, n = 5 or 6, read-out: IC50 (n = 5 or 6) PBS): 0.187 µM

Cc1ccccc1Nc1nc(NCCNc2nc(NCCc3ccc(O)cc3)nc(Nc3ccccc3C)n2)nc(NCCc2ccc(O)cc2)n1 [Compound 5]
inhibition at 100 µM [1]: 1.54%
inhibition at 10 µM [1]: 2.95%
inhibition at 100 µM [2]: 2.68%
inhibition at 10 µM [2]: 4.31%
inhibition at 100 µM [3]: 15.4%
inhibition at 10 µM [3]: 4.6%
inhibition at 10 µM [4]: 35.1%
inhibition at 20 µM [4]: 38.7%
inhibition at 40 µM [4]: 35.4%
inhibition at 5 µM [4]: 28.9%
inhibition at 100 µM [5]: 38.5%
inhibition at 10 µM [5]: 21.2%
IC50 [10, 12]: 36 µM
IC50 [6]: 44 µM

CN(C)CCCC(=O)Oc1ccc(CCNc2nc(NCCNc3nc(NCCc4ccc(OC(=O)CCCN(C)C)cc4)nc(Nc4ccccc4)n3)nc(Nc3ccccc3)n2)cc1 [Compound 12]
inhibition at 100 µM [3]: -8.4%
inhibition at 10 µM [3]: -35.7%
inhibition at 10 µM [4]: -21.1%
inhibition at 20 µM [4]: -28.4%
inhibition at 40 µM [4]: -30%
inhibition at 5 µM [4]: 36.9%
inhibition at 100 µM [5]: 3.8%
inhibition at 10 µM [5]: -30.4%
IC50 [10, 12]: 39 µM
IC50 [10, 13]: 23 µM
IC50 [6]: 3.4 µM

NCCc1ccc(Nc2nc(NCCNc3nc(Nc4ccccc4)nc(Nc4ccc(CCN)cc4)n3)nc(Nc3ccccc3)n2)cc1 [Compound 4]
inhibition at 100 µM [1]: 2.19%
inhibition at 10 µM [1]: 4.5%
inhibition at 100 µM [2]: 5.26%
inhibition at 10 µM [2]: 2.06%
inhibition at 100 µM [3]: -69.4%
inhibition at 10 µM [3]: -47.4%
inhibition at 10 µM [4]: 11.2%
inhibition at 20 µM [4]: 25.3%
inhibition at 40 µM [4]: 44%
inhibition at 5 µM [4]: 2.4%
inhibition at 100 µM [5]: -105%
inhibition at 10 µM [5]: -86.7%
IC50 [10, 12]: 40 µM
IC50 [10, 13]: 44 µM
IC50 [6]: 94.4 µM

COC(=O)c1ccccc1Nc1nc(NCCNc2nc(N)nc(NCCc3ccc(O)cc3)n2)nc(NCCc2ccc(O)cc2)n1 [Compound 3]
inhibition at 10 µM [4]: 32.7%
inhibition at 20 µM [4]: 44.6%
inhibition at 40 µM [4]: 33.9%
inhibition at 5 µM [4]: 0.5%
IC50 [6]: 28 µM

Nc1ccc(CCNc2nc(Nc3ccccc3)nc(Nc3ccc(CCNc4nc(NCCO)nc(Nc5ccccc5)n4)cc3)n2)cc1 [Compound 17]
IC50 [10, 12]: 12 µM
IC50 [10, 13]: 53 µM
IC50 [6]: 57.1 µM

Oc1ccc(CCNc2nc(Nc3ccccc3)nc(Nc3ccc(Nc4nc(NCCc5ccc(O)cc5)nc(Nc5ccccc5)n4)cc3)n2)cc1 [Compound 28]
IC50 [10, 12]: 35 µM
IC50 [6]: 28.8 µM

NCCCCNc1nc(NCCc2ccc(Nc3nc(NCCc4ccc(O)cc4)nc(Nc4ccccc4)n3)cc2)nc(Nc2ccccc2)n1 [Compound 16]
IC50 [10, 12]: 55 µM
IC50 [10, 13]: 36 µM
IC50 [6]: 13.6 µM

Oc1ccc(CCNc2nc(NCCNc3nc(NCCc4ccc(O)cc4)nc(Sc4ccccc4)n3)nc(Sc3ccccc3)n2)cc1 [Compound 11b]
IC50 [10, 12]: 45 µM
IC50 [6]: 23.3 µM
